Experimental data as given in patent US20240158446A1, “CYCLIC COMPOUND HAVING SELECTIVE INHIBITORY ACTION ON KRAS OVER HRAS AND NRAS” (CHUGAI SEIYAKU KABUSHIKI KAISHA, priority 2021, published 2024).
Where two headings read alike, the source gives them in different places.

Experiments:
[1] = molecular target: GDP-bound NRAS wild-type protein (Homo sapiens, UniProt P01111); assay: Binding to NRAS by surface plasmon resonance (SPR), Single Cycle Kinetics; conditions: for NRAS/KRAS (ratio of KD value for NRAS to KD value for KRAS) / NRAS/KRAS (ratio of KD value with respect to NRAS to KD value with respect to KRAS): GDP-bound NRAS wild-type protein vs GDP-bound KRAS wild-type protein; for NRAS/KRAS (ratio of KD value with respect to GDP-bound NRAS wild-type protein to KD value with respect to KRAS): SPR KD ratio NRAS/KRAS, class symbols
[2] = molecular target: GDP-bound KRAS wild-type protein (Homo sapiens, UniProt P01116); assay: Binding to KRAS by surface plasmon resonance (SPR), Single Cycle Kinetics
[3] = test system: human lung cancer strain NCI-H441;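 also: cell proliferation inhibition after four days measured by CellTiter-Glo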
[4] = molecular target: GDP-bound HRAS wild-type protein (Homo sapiens, UniProt P01112); assay: Binding to HRAS by surface plasmon resonance (SPR), Single Cycle Kinetics; conditions: for HRAS/KRAS (ratio of KD value for HRAS to KD value for KRAS) / HRAS/KRAS (ratio of KD value with respect to HRAS to KD value with respect to KRAS): GDP-bound HRAS wild-type protein vs GDP-bound KRAS wild-type protein; for HRAS/KRAS (ratio of KD value with respect to GDP-bound HRAS wild-type protein to KD value with respect to KRAS): SPR KD ratio HRAS/KRAS, class symbols
[5] = SPR, Single Cycle Kinetics, 1:1 binding model, GDP-bound KRAS wild-type protein, read-out: KRAS KD
[6] = SPR, Single Cycle Kinetics, GDP-bound KRAS wild-type protein, read-out: KRAS KD
[7] = SPR Single Cycle Kinetics, GDP-bound KRAS wild-type protein, 1:1 binding model, read-out: KRAS KD

Chain of GDP-bound HRAS wild-type protein (P01112 whole entry): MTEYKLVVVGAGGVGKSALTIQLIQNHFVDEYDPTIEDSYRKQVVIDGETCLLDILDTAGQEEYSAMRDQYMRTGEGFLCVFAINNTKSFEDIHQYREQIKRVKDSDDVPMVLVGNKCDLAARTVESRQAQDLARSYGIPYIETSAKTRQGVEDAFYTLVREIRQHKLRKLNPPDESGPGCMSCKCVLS
Chain of GDP-bound KRAS wild-type protein (P01116 whole entry): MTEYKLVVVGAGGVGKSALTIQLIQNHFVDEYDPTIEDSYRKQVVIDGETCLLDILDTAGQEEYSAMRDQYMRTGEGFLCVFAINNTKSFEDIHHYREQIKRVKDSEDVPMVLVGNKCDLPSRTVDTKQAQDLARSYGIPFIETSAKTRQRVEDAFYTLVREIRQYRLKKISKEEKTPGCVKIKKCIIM
Chain of GDP-bound NRAS wild-type protein (P01111 whole entry): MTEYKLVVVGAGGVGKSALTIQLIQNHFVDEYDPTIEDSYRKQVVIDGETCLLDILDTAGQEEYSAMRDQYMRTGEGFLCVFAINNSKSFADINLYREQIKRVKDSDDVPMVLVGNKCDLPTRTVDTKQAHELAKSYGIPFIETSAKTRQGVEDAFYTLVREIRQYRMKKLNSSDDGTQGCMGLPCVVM

In the case of CC[C@H](C)[C@@H]1NC(=O)[C@H](CC)N(C)C(=O)C[C@@H](C(=O)N2CCOCC2)N(C)C(=O)[C@H](C2CCCC2)N(C)C(=O)C2(CCC2)NC(=O)[C@@H]2CCCN2C(=O)[C@H](CCc2ccc(C(F)(F)F)c(Cl)c2)NC(=O)CN(C)C(=O)[C@H](Cc2ccc(C(F)(F)F)cc2)N2C[C@H](C)CC[C@@H](C2=O)N(C)C(=O)CN(C)C1=O [PP1338], the “NRAS/KRAS (ratio of KD value for NRAS to KD value for KRAS)” value ([1]; SPR, KD ratio class) is reported as “B (a compound having 3 or more and less than 10 is denoted as B)”, the Kd [2, 5] is reported as 0.14 nM and the IC50 [3] is reported as 35 nM. For the same compound, the “HRAS/KRAS (ratio of KD value for HRAS to KD value for KRAS)” value ([4]; SPR, KD ratio class) was “B (a compound having 3 or more and less than 10 is denoted as B)”.
For CCO[C@@H]1C[C@H]2C(=O)NC3(CCC3)C(=O)N(C)[C@@H](C3CCCC3)C(=O)N(C)[C@H](C(=O)N3CCOCC3)CC(=O)N(C)[C@@H](CCOC)C(=O)N[C@@H]([C@@H](C)CC)C(=O)N(C)CC(=O)N(C)[C@H]3CCCCCN(C3=O)[C@@H](Cc3ccc(F)cc3)C(=O)N(C)CC(=O)N[C@@H](CCc3cc(F)c(C(F)(F)F)c(F)c3)C(=O)N2C1 [PP1180], the “NRAS/KRAS (ratio of KD value for NRAS to KD value for KRAS)” value ([1]; SPR) was “B (a compound having 3 or more and less than 10 is denoted as B)”, the Kd [2, 6] was 0.17 nM and the IC50 [3] was 46.9 nM. The “HRAS/KRAS (ratio of KD value for HRAS to KD value for KRAS)” value ([4]; SPR) was “B (a compound having 3 or more and less than 10 is denoted as B)”.
With CC[C@H](C)[C@@H]1NC(=O)[C@H](CC(C)C)N(C)C(=O)C[C@@H](C(=O)N2CCOCC2)N(C)C(=O)[C@H](C2CCCC2)N(C)C(=O)C2(CCCC2)NC(=O)[C@@H]2[C@@H](O)CCN2C(=O)[C@H](CCc2cc(F)c(C(F)(F)F)c(F)c2)NC(=O)CN(C)C(=O)[C@H](Cc2ccc(C(F)(F)F)cc2)N2CCCC[C@@H](C2=O)N(C)C(=O)CN(C)C1=O [PP0558] the “NRAS/KRAS (ratio of KD value with respect to NRAS to KD value with respect to KRAS)” value ([1]; SPR) was “B (a compound having 3 or more and less than 10 is denoted as B)”, the Kd [2, 7] was 0.067 nM and the IC50 [3] was 31.4 nM. The “HRAS/KRAS (ratio of KD value with respect to HRAS to KD value with respect to KRAS)” value ([4]; SPR) was “B (a compound having 3 or more and less than 10 is denoted as B)”.
With CCO[C@@H]1C[C@H]2C(=O)NC3(CCC3)C(=O)N(C)[C@@H](C(CC)CC)C(=O)N(C)[C@H](C(=O)N3CCCC3)CC(=O)N(C)[C@@H](C)C(=O)N[C@@H]([C@@H](C)CC)C(=O)N(C)CC(=O)N(C)[C@H]3C/C=C\CCN(C3=O)[C@@H](CC3CCCCC3)C(=O)N(C)CC(=O)N[C@@H](CCc3cc(F)c(C(F)(F)F)c(F)c3)C(=O)N2C1 [PP1434] the “NRAS/KRAS (ratio of KD value for NRAS to KD value for KRAS)” value ([1]; SPR, KD ratio class) was “A (a compound having 10 or more and less than 20 is denoted as A)”, the Kd [2, 5] was 0.69 nM and the IC50 [3] was 112 nM. The “HRAS/KRAS (ratio of KD value for HRAS to KD value for KRAS)” value ([4]; SPR, KD ratio class) was “A (a compound having 10 or more and less than 20 is denoted as A)”.
For CCC[C@H]1C(=O)N[C@@H]([C@@H](C)CC)C(=O)N(C)CC(=O)N(C)[C@H]2C/C=C\CCN(C2=O)[C@@H](Cc2ccc(C)cc2)C(=O)N(C)CC(=O)N[C@@H](CCc2ccc(C(F)(F)F)c(OC)c2)C(=O)N2C[C@H](OCC)C[C@H]2C(=O)N(C)C2(CCC2)C(=O)N(C)[C@@H](C2CCCC2)C(=O)N(C)[C@H](C(=O)N2CCCCC2)CC(=O)N1C [PP3104, (2S,8S,12R,14S,20S,23S,27S,30S,36S,38Z)-20-cyclopentyl-12-ethoxy-8-[2-[3-methoxy-4-(trifluoromethyl)phenyl]ethyl]-4,16,19,22,26,32,35-heptamethyl-30-[(1S)-1-methylpropyl]-23-(piperidine-1-carbonyl)-27-propyl-2-(p-tolylmethyl)spiro[1,4,7,10,16,19,22,26,29,32,35-undecazatricyclo[34.5.1.0^10,14]dotetracont-38-ene-17,1′-cyclobutane]-3,6,9,15,18,21,25,28,31,34,42-undecone], the “NRAS/KRAS (ratio of KD value for NRAS to KD value for KRAS)” value ([1]; SPR) was “A (a compound having 10 or more and less than 20 is denoted as A)”, the “ratio of the KD value with respect to GDP-bound NRAS wild-type protein to the KD value with respect to KRAS” value ([1]; SPR, KD(NRAS)/KD(KRAS)) was “A (a compound having 10 or more and less than 20 is denoted as A)” and the Kd ([2]; SPR, Single Cycle Kinetics, 1:1 binding model, read-out: KD value with respect to GDP-bound KRAS wild-type protein) was 0.097 nM. The Kd [2, 6] was 0.097 nM, the IC50 ([3]; read-out: NCI-H441 cell proliferation inhibitory activity, 50% proliferation inhibitory concentration (IC50 value), NCI-H441, four days, CellTiter-Glo) was 3.8 nM and the “HRAS/KRAS (ratio of KD value for HRAS to KD value for KRAS)” value ([4]; SPR) was “A (a compound having 10 or more and less than 20 is denoted as A)”. The “ratio of the KD value with respect to GDP-bound HRAS wild-type protein to the KD value with respect to KRAS” value ([4]; SPR, KD(HRAS)/KD(KRAS)) was “A (a compound having 10 or more and less than 20 is denoted as A)”.
With CC[C@H](C)[C@@H]1NC(=O)[C@@H]2CCCCCN2C(=O)C[C@@H](C(=O)N2CCOCC2)N(C)C(=O)[C@H](C2CCCC2)N(C)C(=O)C2(CCCC2)NC(=O)[C@@H]2CCCN2C(=O)[C@H](CCc2cc(F)c(C(F)(F)F)c(F)c2)NC(=O)CN(C)C(=O)[C@H](Cc2ccc(C(F)(F)F)cc2)N2CCCC[C@@H](C2=O)N(C)C(=O)CN(C)C1=O [PP0595] the “NRAS/KRAS (ratio of KD value with respect to NRAS to KD value with respect to KRAS)” value ([1]; SPR) was “C (A compound having a KD ratio of 0.1 or more and less than 3 is denoted as C)”, the Kd [2, 7] was 1 nM and the IC50 [3] was 80 nM. For the same compound, the “HRAS/KRAS (ratio of KD value with respect to HRAS to KD value with respect to KRAS)” value ([4]; SPR) was “B (a compound having 3 or more and less than 10 is denoted as B)”.
CCC(CC)[C@H]1C(=O)N(C)[C@H](C(=O)N(C)C)CC(=O)N(C)[C@@H](COC)C(=O)N[C@@H]([C@@H](C)CC)C(=O)N(C)CC(=O)N(C)[C@H]2C/C=C\CCN(C2=O)[C@@H](Cc2ccc(C(F)(F)F)cc2)C(=O)N(C)CC(=O)N[C@@H](CCc2ccc(Cl)c(Cl)c2)C(=O)N2C[C@H](OC3CCC3)C[C@H]2C(=O)NC2(CC(C)(C)C2)C(=O)N1C [PP2642] was tested, and the “NRAS/KRAS (ratio of KD value with respect to GDP-bound NRAS wild-type protein to KD value with respect to KRAS)” value [1] was “AA (a compound having 20 or more is denoted as AA)”, the Kd [2, 7] was 0.44 nM and the IC50 [3] was 36.6 nM. For the same compound, the “HRAS/KRAS (ratio of KD value with respect to GDP-bound HRAS wild-type protein to KD value with respect to KRAS)” value [4] was “A (a compound having 10 or more and less than 20 is denoted as A)”.
With CCOC[C@H]1C(=O)N[C@@H]([C@@H](C)CC)C(=O)N(C2CC2)CC(=O)N(C)[C@H]2C/C=C\CCN(C2=O)[C@@H](Cc2ccc(C)cc2)C(=O)N(C)CC(=O)N[C@@H](CCc2ccc(C(F)(F)F)c(OC)c2)C(=O)N2C[C@H](OCC)C[C@H]2C(=O)NC2(CC(C)(C)C2)C(=O)N(C)[C@@H](CC(C)(C)C)C(=O)N(C)[C@H](C(=O)N(C)C)CC(=O)N1C [PP2724] the “NRAS/KRAS (ratio of KD value with respect to GDP-bound NRAS wild-type protein to KD value with respect to KRAS)” value [1] was “A (a compound having 10 or more and less than 20 is denoted as A)”, the Kd [2, 7] was 0.43 nM and the IC50 [3] was 20 nM. For the same compound, the “HRAS/KRAS (ratio of KD value with respect to GDP-bound HRAS wild-type protein to KD value with respect to KRAS)” value [4] was “B (a compound having 3 or more and less than 10 is denoted as B)”.
CCO[C@@H]1C[C@H]2C(=O)NC3(CCC3)C(=O)N(C)[C@@H](C3CCCC3)C(=O)N(C)[C@H](C(=O)N3CCOCC3)CC(=O)N(C)[C@@H](CC)C(=O)N[C@@H]([C@@H](C)CC)C(=O)N(C)CC(=O)N(C)[C@H]3CCCCCN(C3=O)[C@@H](Cc3ccc(F)cc3)C(=O)N(C)CC(=O)N[C@@H](CCc3cc(F)c(C(F)(F)F)c(F)c3)C(=O)N2C1 [PP1176] was tested, and the “NRAS/KRAS (ratio of KD value for NRAS to KD value for KRAS)” value ([1]; SPR) was “B (a compound having 3 or more and less than 10 is denoted as B)”, the Kd [2, 6] was 0.13 nM and the IC50 [3] was 50 nM. The “HRAS/KRAS (ratio of KD value for HRAS to KD value for KRAS)” value ([4]; SPR) was “B (a compound having 3 or more and less than 10 is denoted as B)”.
